How the values were obtained:
wheat 'Harvest HRS' = assay: Wheat field experiment (Table W1); format: in vivo, Triticum aestivum; settings: 1×10^−5 M
Description: The wheat (Triticum aestivum) cultivar Harvest HRS was seeded on May 20, 2011 with a target of 250 seedlings per m^2 into a field plot located at the St. Albert Field-Research Station of the University of Alberta, St. Albert, Alberta, Canada that was seeded with canola the previous season. Eight 2×4 m plots were cut out of a larger field plot with a mower producing two rows of four 2×4 m plots with a 1 m buffer between each plot and 4 m between the 4-plot rows. The hormone treatments were randomly assigned to the 2×4 plots. Aqueous solutions of 4-ME-IAA at 1×10^−5 M in 0.1% (v/v) Tween 80 or control solutions (0.1% [v/v]Tween 80) were sprayed Jul. 15, 2011 in slightly breezy (8 km/h), overcast weather, temperature 16° C. Three hours later, the sun emerged and the ambient temperature rose from 16° C. to 21° C. The relative humidity at the time of spraying was 75%. On average, 15% of the plants in the plots had their first florets open at the time of hormone application. A separate Chapin 20000-type 4 L pneumatic sprayer was used for applying the 4-ME-IAA and the control solutions; each sprayer was equipped with a medium-delivery blue fan nozzle designed to deliver 1.4 L per minute at the normal operating pressure of 40 PSI. Each plot was sprayed with a total of 0.91 L of solution to obtain uniform coverage.

pea pericarp = assay: Split-pericarp assay: growth of deseeded pea pericarps attached to the plant; format: in vivo, Pisum sativum
Source text: In addition to GAs, developing pea seeds and pericarps contain two auxins, 4-chloroindole-3-acetic acid (4-Cl-IAA) and indole-3-acetic acid (IAA) (Magnus et al. 1997). A split-pericarp assay where test compounds are applied to the inner wall of split and deseeded pericarps that are still attached to the plant has been developed to examine the effects of exogenously applied growth substances on pericarp growth.
(§1) During early pea fruit growth, the physiological roles of 4-chloroindole-3-acetic acid (4-Cl-IAA) and IAA, both natural pea auxins, in regulating gibberellin (GA) 20-oxidase gene expression (PsGA20ox1) were tested with 4-position, ring-substituted auxins that have a range of biological activities (fruit growth). The effect of seeds, and natural and synthetic auxins (4-Cl-IAA, and IAA; 4-Me-IAA, 4-Et-IAA and 4-F-IAA, respectively), and auxin concentration (4-Cl-IAA) on PsGA20ox1 mRNA levels in pea pericarp were investigated over a 24 h treatment period. The ability of certain 4-substituted auxins to increase PsGA20ox1 mRNA levels in deseeded pericarp was correlated with their ability to stimulate pericarp growth.

[1] = test system: Pisum sativum L. cv. Carneval; assay: Growth chamber pea study: one 4-ME-IAA spray, heat-stressed and non-stressed plants (Tables 1, 2); format: in vivo; set-up: more pods per plant with mature seeds than control / increase in number of seeds per plant vs control / increase in total seed weight per plant vs control: tested at 1 µM
Source text: ‘Carneval’ (Pisum sativum L.) was chosen as a model cultivar as a semi-dwarf (semi-leafless; an field pea which is used extensively in crop agriculture. ‘Carneval’ has white flowers and yellow cotyledons at maturity, begins to flower at about the 15 to 17th node under long day conditions. Seeds of ‘Carneval’ were planted at an approximate depth of 2.5 cm in 3-L plastic pots (4 seeds per pot and thinned to 2 plants per pot after approximately 2 weeks) in 1:1 Sunshine #4 potting mix (Sun Gro Horticulture, Vancouver, Canada) and sand. Approximately 15 cc of slow-release fertilizer (14-14-14) was added to the potting mix at planting. The experiment was arranged in a completely randomized design and grown at the University of Alberta in a growth chamber set at 19° C./17° C. (day/night) with a 16/8-h photoperiod under cool-white fluorescent lights (F54/15/835/HO high fluorescent bulbs, Phillips, Holland; 350 μE m^2 s^−2, measured with a LI-188 photometer, Li-Cor Biosciences, Lincoln, Nebr.). For the heat stress treatment, plants were placed in a separate growth chamber with a 16/8-h photoperiod under cool-white fluorescent lights (F54/15/835/HO high fluorescent bulbs, Phillips, Holland) for 4 days where the temperature was cycled over a 24 hr period as follows: 34° C. air temperature for 6 hours per day (between 11:00 and 17:00 hrs) for 4 days during the light cycle; the remainder of the light cycle was maintained at a 22° C. air temperature; the dark cycle was maintained at 19° C. After the 4 day heat treatment, the plants were returned to the same growth chamber they were originally grown in, where they were taken to maturity. One application of 4-ME-IAA (1 μM in 0.1% Tween 80) or 0.1% Tween 80 (control) was applied as a spray to the entire plant to cover when the first flowering node of the main stem was at the flower bud or full bloom stage. For the heat stress treatment, the hormone or control application was completed 16 hrs prior to the initiation of the first heat-stress cycle.

[2] = test system: PsGA20ox1, PsGA3ox1, PsGA2ox1; assay: GA biosynthesis/catabolism gene expression in pea pericarp; format: in vivo, Pisum sativum; settings: 24 h treatment period
Description: as §1

[3] = At maturity, 20 spikes per plot
[4] = 1 μM, non-heat stressed, at plant maturity
[5] = non-stressed, at plant maturity

For Cc1cccc2[nH]cc(CC(=O)O)c12 [4-ME-IAA, 4-methyl-indole-3-acetic acid], the “increase in seed number per floral spike” value (wheat 'Harvest HRS') was 10%, the “increase in seed weight per floral spike” value (wheat 'Harvest HRS') was 12% and the “Seed number per spike” value (wheat 'Harvest HRS'; At maturity) was 27.5 ± 1.3. The “Seed weight per spike” value (wheat 'Harvest HRS'; At maturity) was 1.03 ± 0.05 g, the Total seed number (wheat 'Harvest HRS'; [3]) was 550.8 ± 26.6 and the Total seed weight (wheat 'Harvest HRS'; [3]) was 20.6 ± 1.1 g. The “Number of spikes per plant” value (wheat 'Harvest HRS'; Pre-harvest) was 3.825 ± 0.207, the Plant height (wheat 'Harvest HRS'; Pre-harvest) was 94.5 ± 0.4 cm and the “pericarp growth (biological activity)” value (pea pericarp) was “second most biologically active auxin”. For the same compound, the “plant maturation (dry-down), FIG. 3” value ([1]; 1 μM in 0.1% Tween 80, 34 days after spray) was “stimulated maturation of the plant”, the “Number of pods per plant” value [1, 4] was 14.9 ± 0.6 and the “Number of seeds per plant” value [1, 4] was 57.6 ± 3.5. For the same compound, the “Number of stems/stems with pods per plant” value [1, 4] was 1.1 ± 0.1, the “Total seed weight per plant” value [1, 4] was 13.56 ± 0.64 g and the Weight per seed [1, 4] was 0.24 ± 0.01 g. The “Number of pods with developing seeds per plant” value ([1]; Heat-stressed (34° C. 6 h/day, 4 days), 1 μM in 0.1% Tween 80, 16 hr before heat, 9 to 10 days after removal from heat treatment) was 10.6 ± 0.8, the “Number of pods with developing seeds per plant” value ([1]; Non-stressed (19° C./17° C.), 1 μM in 0.1% Tween 80, 9 to 10 days) was 15.4 ± 0.6 and the “increase in pod retention vs control” value ([1]; heat-stress conditions, 9-10 days after application) was 112%. The “pod retention, FIG. 2” value ([1]; non-stressed and heat-stress conditions, 9-10 days after application) was “increased pod retention”, the “increase in pod retention vs control” value ([1]; non-stressed conditions, 9-10 days after application) was 41% and the Weight per seed [1, 5] was 240 mg per seed. For the same compound, the “increase in number of seeds per plant vs control” value [1, 5] was 39%, the “increase in total seed weight per plant vs control” value [1, 5] was 23% and the “more pods per plant with mature seeds than control” value [1, 5] was 42%. The “PsGA20ox1 mRNA levels in deseeded pericarp” value [2] was “second most active auxin”.

From US20140106967A1, “AUXIN PLANT GROWTH REGULATORS” (The Governors of The University of Alberta, priority 2011, published 2014)
